Experiment [1] has as its system RXR. The experiment can be described thus: Nuclear receptor activation in human cells expressing the receptor. It counts as cell-based.
Experiment [2] deals with T1, LXRP (Homo sapiens, UniProt P55055).
T1 sequence (P55055 1-460): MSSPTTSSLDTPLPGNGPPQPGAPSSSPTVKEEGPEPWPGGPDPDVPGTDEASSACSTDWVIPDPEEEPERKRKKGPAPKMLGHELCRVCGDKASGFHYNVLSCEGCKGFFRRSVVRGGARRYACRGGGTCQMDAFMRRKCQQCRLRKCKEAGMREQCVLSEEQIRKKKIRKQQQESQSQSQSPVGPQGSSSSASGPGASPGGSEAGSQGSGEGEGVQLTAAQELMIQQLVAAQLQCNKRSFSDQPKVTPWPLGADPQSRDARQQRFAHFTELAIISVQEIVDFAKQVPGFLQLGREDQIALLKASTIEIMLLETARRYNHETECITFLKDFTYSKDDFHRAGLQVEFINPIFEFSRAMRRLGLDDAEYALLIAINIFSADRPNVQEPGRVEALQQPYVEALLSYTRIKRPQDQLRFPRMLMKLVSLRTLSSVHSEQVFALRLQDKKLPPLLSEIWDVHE
The description is as above. It counts as cell-based.

The target of experiment [3] is T2, PPARα (Homo sapiens, UniProt Q07869).
T2 sequence (Q07869 1-468): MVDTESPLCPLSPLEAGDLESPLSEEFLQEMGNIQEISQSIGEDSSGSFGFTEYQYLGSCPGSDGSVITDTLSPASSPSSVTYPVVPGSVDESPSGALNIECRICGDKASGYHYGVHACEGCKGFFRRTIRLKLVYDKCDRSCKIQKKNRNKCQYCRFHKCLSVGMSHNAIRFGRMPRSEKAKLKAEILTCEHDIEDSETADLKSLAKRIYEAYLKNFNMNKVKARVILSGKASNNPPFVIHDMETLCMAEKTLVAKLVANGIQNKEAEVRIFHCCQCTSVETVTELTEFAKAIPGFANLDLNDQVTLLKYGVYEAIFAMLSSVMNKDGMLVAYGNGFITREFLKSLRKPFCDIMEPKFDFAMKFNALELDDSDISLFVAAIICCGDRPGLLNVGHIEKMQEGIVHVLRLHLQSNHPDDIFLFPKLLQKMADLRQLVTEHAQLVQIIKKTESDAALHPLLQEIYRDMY
The experiment can be described thus: PPAR agonist activity in human cell lines expressing the three PPAR isotypes. It counts as cell-based. The procedure: (§1) Compound I is a PPARS agonist that is useful in the methods of treatment described herein. In human cell lines expressing the three peroxisome proliferator-activated receptor (PPAR) isotypes, Compound I is a potent (EC50<100 nM) and selective human PPARS agonist (PPARα (EC50>10 μM) and PPARγ (EC50>10 μM)).

The target of experiment [4] is T3, PPARγ (Homo sapiens, UniProt P37231).
T3 sequence (P37231 1-505): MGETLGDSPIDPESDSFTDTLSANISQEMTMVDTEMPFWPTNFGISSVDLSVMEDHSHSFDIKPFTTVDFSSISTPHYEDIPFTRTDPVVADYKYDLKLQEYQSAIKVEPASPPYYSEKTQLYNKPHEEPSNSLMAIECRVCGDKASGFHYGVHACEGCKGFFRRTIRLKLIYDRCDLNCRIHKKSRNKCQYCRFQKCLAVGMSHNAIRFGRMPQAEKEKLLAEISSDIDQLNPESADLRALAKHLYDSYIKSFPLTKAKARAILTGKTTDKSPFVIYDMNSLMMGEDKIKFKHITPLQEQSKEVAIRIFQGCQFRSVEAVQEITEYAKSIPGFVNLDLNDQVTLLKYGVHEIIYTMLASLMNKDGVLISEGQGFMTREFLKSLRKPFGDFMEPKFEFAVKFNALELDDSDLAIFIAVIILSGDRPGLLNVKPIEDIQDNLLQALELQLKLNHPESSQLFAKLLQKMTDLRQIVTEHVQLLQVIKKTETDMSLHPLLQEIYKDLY
The experiment is described as above. Type of experiment: cell-based. How it is done: as §1

Experiment [5] has as its target T4, PPARδ (Homo sapiens, UniProt Q03181).
T4 sequence (Q03181 1-441): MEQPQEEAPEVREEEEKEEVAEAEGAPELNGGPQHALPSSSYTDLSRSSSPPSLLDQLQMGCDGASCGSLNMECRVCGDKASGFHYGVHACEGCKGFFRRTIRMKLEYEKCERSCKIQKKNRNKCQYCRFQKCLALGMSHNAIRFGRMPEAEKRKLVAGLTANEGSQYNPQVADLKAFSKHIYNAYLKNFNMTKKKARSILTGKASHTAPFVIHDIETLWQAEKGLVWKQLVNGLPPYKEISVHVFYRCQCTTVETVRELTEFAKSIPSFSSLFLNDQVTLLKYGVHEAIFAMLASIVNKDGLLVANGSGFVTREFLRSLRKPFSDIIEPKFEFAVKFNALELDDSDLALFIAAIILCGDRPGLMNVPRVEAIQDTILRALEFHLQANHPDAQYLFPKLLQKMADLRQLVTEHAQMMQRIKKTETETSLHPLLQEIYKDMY
The experiment is described as above. It counts as cell-based. The procedure:
as §1

In experiment [6] the target is T5, LXRα (Homo sapiens, UniProt Q13133).
T5 sequence (Q13133 1-447): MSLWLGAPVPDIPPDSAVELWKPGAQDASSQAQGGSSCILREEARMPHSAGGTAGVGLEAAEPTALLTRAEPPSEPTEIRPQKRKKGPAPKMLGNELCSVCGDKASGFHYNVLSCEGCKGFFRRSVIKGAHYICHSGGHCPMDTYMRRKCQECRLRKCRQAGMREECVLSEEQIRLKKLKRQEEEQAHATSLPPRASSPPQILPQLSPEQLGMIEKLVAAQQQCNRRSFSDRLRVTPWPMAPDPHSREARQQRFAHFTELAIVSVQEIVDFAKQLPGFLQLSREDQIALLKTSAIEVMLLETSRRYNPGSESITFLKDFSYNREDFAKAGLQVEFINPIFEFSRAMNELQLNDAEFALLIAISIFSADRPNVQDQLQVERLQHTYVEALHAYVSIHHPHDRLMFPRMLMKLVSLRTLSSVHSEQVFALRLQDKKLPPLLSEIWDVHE
The experiment can be described thus: Nuclear receptor activation in human cells expressing the receptor. Type of experiment: cell-based.

The subject of experiment [7] is Angiopoietin-like 4 (ANGPTL4). The experiment can be described thus: In vivo expression of PPAR target gene in rat muscle.
Experiment [8] concerns the target T6, FXR (Homo sapiens, UniProt Q96RI1).
T6 sequence (Q96RI1 1-486): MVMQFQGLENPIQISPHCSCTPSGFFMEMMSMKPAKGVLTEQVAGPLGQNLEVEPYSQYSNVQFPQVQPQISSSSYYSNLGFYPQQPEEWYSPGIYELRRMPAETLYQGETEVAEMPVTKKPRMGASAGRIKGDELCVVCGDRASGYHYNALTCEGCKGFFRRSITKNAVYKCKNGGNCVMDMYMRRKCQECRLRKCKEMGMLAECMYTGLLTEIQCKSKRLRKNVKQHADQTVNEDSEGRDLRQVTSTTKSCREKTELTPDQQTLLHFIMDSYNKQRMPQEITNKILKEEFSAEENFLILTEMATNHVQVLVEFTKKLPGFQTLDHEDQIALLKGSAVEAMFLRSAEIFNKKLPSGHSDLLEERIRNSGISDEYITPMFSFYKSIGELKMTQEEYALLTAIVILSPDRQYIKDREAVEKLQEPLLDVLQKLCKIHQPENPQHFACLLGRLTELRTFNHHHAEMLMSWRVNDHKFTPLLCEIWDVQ
The experiment can be described thus: Nuclear receptor activation in human cells expressing the receptor. Type of experiment: cell-based.

Experiment [9] relates to PPARS regulated genes (CPT1b, PGC-1α) in mice muscle. The experiment can be described thus: In vivo expression of PPARδ regulated genes in mice muscle.
[10] abbreviates: human cell lines expressing the PPAR isotypes.

Molecules are shown by their SMILES.

These results are taken from US11267795B2, “Crystalline PPAR-delta agonist” (Reneo Pharmaceuticals, Inc., priority 2020, dated 2022).

Turning to `Cc1cc(OC/C=C(/c2ccc(F)cc2)c2ccc(C#CCN3CCOCC3)cc2)ccc1OCC(=O)O` [Compound I, (E)-2-(4-((3-(4-fluorophenyl)-3-(4-(3-morpholinoprop-1-yn-1-yl)phenyl)allyl)oxy)-2-methylphenoxy)acetic acid], the “activation of nuclear receptor RXR” value in [1] is recorded as “has not resulted in activation”. Besides, the “activation of nuclear receptor LXRP” value in experiment [2] is listed as “has not resulted in activation”. The “type of agonism at PPARα” value in [3] was “partial agonist”. For the same compound, the results for the EC50 in experiment [3] (setting [10]), in experiment [4] (setting [10]) and in [5] (setting [10]) were greater than 10 µM, greater than 10 µM and less than 0.1 µM, respectively. Also, the “type of agonism at PPARγ” value in experiment [4] is recorded as “partial agonist”. Further, the “type of agonism at PPARδ” value in [5] is recorded as “full PPARS agonist”. Moreover, in experiment [6], the “activation of nuclear receptor LXRα” value is given as “has not resulted in activation”. Further, the “expression of Angiopoietin-like 4 (ANGPTL4)” value in [7] was “increased the expression”. Further, the “activation of nuclear receptor FXR” value in experiment [8] is on record as “has not resulted in activation”. The “expression of PPARδ regulated genes (CPT1b, PGC-1α)” value in [9] was “altered the expression patterns”.

Usually EC50 stands for the concentration needed to bring the measured effect to its halfway point. High values mean a less potent agent, low ones a more potent agent.
